Laboratory results published in US11472838B2, “Inhibitors of blood coagulation factor XIII” (Zedira GmbH, priority 2018, dated 2022).
Like-named read-outs stand apart in the source and are kept apart here. *1 amine or outer side, *2 acyl side, *3 side chain or, on linkers, in order; H or OH if unused. Where a SMILES comes first, the peptide text is derived from it. [ ]: non-standard residue; d: D form. The star is where a group is joined. ξ: configuration not given here. Benzoyl(3-COOH,5-NO2) = O=C(O)c1cc(C(=O)*)cc([N+](=O)[O-])c1; Nle(5E-ene,6-CO2Et) = CCOC(=O)/C=C/CC[C@H](N)C(=O)O; Isonicotinoyl(3-COOH) = O=C(O)c1cnccc1C(=O)*; X1 = COC(=O)/C=C/CC[C@H](N[*:1])C(=O)[*:2]; X5 = CNC(=O)/C=C/CC[C@H](N[*:1])C(=O)[*:2]; Pro(4-methylene) = C=C1CN[C@H](C(=O)O)C1; Morpholine(3S-CO) = O=C(O)[C@@H]1COCCN1; Pro(4-oxo) = O=C1CN[C@H](C(=O)O)C1; Ala(cPr) = N[C@@H](CC1CC1)C(=O)O; Ile(3ξ) = CCC(C)[C@H](N)C(=O)O; Thr(3ξ) = CC(O)[C@H](N)C(=O)O; Chg = N[C@H](C(=O)O)C1CCCCC1; Tle = CC(C)(C)[C@H](N)C(=O)O; αMeP = C[C@@]1(C(=O)O)CCCN1; X6 = Cc1cccc(C)c1OCC(C)N*; X7 = O=C(O)c1nccnc1C(=O)*; Nle = CCCC[C@H](N)C(=O)O; NHIsopentyl = CC(C)CCN*; ξV = CC(C)C(N)C(=O)O; Alloc = C=CCOC(=O)*

Key:
in vitro = conditions: for half-life / recovery in plasma determined by HPLC: plasma; for recovery in plasma determined by HPLC: 37° C., over a period of 2 hours
Protocol: Further, the stability of compounds in plasma was determined as prerequisite for drug-likeness. Briefly, after spiking the chemical entities, the plasma was incubated at 37° C. At certain time points (e.g. at 15 and 120 minutes), 3 vol. cold MeOH were added to extract the compounds. After centrifugation, the supernatant was analyzed by HPLC. The half life was calculated based on the respective calibration curve.

TG2 = TG2 (Homo sapiens (Human), UniProt P21980); experiment: Inhibitory activity against TG2 (isopeptidase assay), Tables 3 and 4; format: biochemical; conditions: for Selectivity: TG2 versus FXIII
FXIII = FXIII (Homo sapiens (Human), UniProt P00488); experiment: Inhibitory activity against FXIII (isopeptidase assay), Tables 3 and 4; format: biochemical;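 also: FXIIIa activity read with a peptide substrate derived from the α2-antiplasmin N-terminal dodecapeptide, FXIII activated beforehand at room temperature, inhibitor-free wells with DMSO buffer as control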
whole human blood = experiment: Thromboelastometry (ROTEM) in whole human blood with t-PA; format: cell-based
Protocol: Clotting time (CT), clot formation time (CFT), maximum clot firmness (MCF) and lysis index at 60 min (LI60) were obtained using fresh whole blood in the ROTEM® delta device according to the manufacturer's instructions.

[1] = isopeptidase assay, Table 3, read-out: IC50 [nM] TG2
[2] = isopeptidase assay, Table 3, read-out: IC50 [nM] FXIII

TG2, sequence (P21980 whole entry): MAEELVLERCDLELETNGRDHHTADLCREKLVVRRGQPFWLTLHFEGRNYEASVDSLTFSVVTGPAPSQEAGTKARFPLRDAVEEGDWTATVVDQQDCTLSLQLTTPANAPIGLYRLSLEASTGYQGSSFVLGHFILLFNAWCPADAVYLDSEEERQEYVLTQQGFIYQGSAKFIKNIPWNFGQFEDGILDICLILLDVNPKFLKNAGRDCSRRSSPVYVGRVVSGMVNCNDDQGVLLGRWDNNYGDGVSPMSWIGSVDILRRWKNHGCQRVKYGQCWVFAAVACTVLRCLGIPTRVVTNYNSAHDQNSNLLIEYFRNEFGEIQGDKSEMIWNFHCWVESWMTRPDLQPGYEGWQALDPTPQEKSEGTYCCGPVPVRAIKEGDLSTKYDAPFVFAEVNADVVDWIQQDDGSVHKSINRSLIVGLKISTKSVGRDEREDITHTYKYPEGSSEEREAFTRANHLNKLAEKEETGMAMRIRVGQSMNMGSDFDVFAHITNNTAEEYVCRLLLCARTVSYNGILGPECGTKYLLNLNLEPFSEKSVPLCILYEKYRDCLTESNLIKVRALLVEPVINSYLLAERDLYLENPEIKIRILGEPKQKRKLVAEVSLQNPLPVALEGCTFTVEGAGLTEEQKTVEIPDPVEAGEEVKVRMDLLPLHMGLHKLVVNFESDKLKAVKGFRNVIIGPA
FXIII, sequence (P00488 39-732): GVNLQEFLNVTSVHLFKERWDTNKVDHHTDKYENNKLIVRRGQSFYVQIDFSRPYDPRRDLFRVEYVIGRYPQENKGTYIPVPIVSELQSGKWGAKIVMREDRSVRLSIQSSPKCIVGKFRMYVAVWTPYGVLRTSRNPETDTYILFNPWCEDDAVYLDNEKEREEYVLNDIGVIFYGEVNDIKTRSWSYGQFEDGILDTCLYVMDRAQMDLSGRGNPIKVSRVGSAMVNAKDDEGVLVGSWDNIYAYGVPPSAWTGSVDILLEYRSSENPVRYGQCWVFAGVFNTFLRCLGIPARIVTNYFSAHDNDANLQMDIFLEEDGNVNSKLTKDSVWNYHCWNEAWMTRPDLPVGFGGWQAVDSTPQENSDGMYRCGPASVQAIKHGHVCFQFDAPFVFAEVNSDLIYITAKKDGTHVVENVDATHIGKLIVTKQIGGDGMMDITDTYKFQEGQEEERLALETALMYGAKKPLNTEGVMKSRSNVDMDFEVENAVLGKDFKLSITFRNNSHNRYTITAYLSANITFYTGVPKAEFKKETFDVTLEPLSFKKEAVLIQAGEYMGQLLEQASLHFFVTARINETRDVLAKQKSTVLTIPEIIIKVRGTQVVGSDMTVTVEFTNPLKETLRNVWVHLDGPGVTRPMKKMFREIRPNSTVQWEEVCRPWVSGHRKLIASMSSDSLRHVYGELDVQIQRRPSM

half-life (in vitro)	Selectivity (TG2; Table 4)	IC50 (TG2; Table 4, read-out: TG2 IC50)	IC50 (FXIII; Table 4, read-out: FXIII IC50)	recovery at 2 h (in vitro)	SMILES	increase in clot lysis at 60 minutes compared to control (LI60c) (whole human blood)	recovery in plasma determined by HPLC (in vitro)	Selectivity (TG2; isopeptidase assay, Table 3)	IC50 (TG2; [1])	IC50 (FXIII; [2])
< 15 min	0.54	227 nM	420 nM		COC(=O)/C=C/CC[C@H](NC(=O)[C@H](CC(N)=O)NC(C)=O)C(=O)N[C@@H](CCC(=O)O)C(=O)N[C@@H](CCC(N)=O)C(=O)N[C@H](C(=O)N[C@@H](CO)C(=O)N1CCC[C@H]1C(=O)N[C@@H](CC(C)C)C(=O)N[C@H](C(=O)N[C@@H](CC(C)C)C(=O)N[C@@H](CC(C)C)C(=O)N[C@@H](CCCCN)C(=O)O)C(C)O)C(C)C (stereo partly shown) [Ref. 17, reference compound] (Ac-N[X1]EQVSPL[Thr(3ξ)]LLK-OH)					
	5.66	798 nM	141 nM	> 75%	COC(=O)/C=C/CC[C@H](NC(=O)[C@@H]1CC(=O)CN1)C(=O)N[C@@H](CC1CC1)C(=O)N1CCOC[C@H]1C(=O)N[C@@H](CC(C)C)C(=O)N1CCC[C@H]1C(=O)O [Compound 44] (H-[Pro(4-oxo)][X1][Ala(cPr)][Morpholine(3S-CO)]LP-OH)	11%				
					COC(=O)/C=C/CC[C@H](NC(=O)c1ccncc1C(=O)O)C(=O)N[C@H](C(=O)N1CC(=O)C[C@H]1C(=O)N[C@H](C(=O)N[C@H](C(=O)O)C1CCCCC1)C1CCCCC1)C(C)(C)C [34a/b] ({Isonicotinoyl(3-COOH)}-[X1][Tle][Pro(4-oxo)][Chg][Chg]-OH)		> 75%	2.7	356 nM	123 nM
< 15 min		2150 nM	> 10 nM		CCCC[C@H](NC(=O)[C@H](CC/C=C/C(=O)OC)NC(=O)[C@@H](CC(=O)O)NC(C)=O)C(=O)N[C@@H](CCCC)C(=O)N[C@@H](CC(C)C)C(=O)N1CCC[C@H]1C(=O)O [Ref. 14, reference compound] (Ac-[dD][X1][Nle][Nle]LP-OH)					
				> 75%	COC(=O)/C=C/CC[C@H](NC(=O)c1cc(C(=O)O)cc([N+](=O)[O-])c1)C(=O)N[C@H](C(=O)N1CC(=O)C[C@H]1C(=O)N[C@@H](CC(C)C)C(=O)N1CCC[C@@]1(C)C(=O)NC(C)COc1c(C)cccc1C)C(C)(C)C (stereo partly shown) [Compound 30] ({Benzoyl(3-COOH,5-NO2)}-[X1][Tle][Pro(4-oxo)]L[αMeP]-X6)			1.1		15 nM
					CNC(=O)/C=C/CC[C@H](NC(=O)c1ccncc1C(=O)O)C(=O)N[C@H](C(=O)N1CC(=O)C[C@H]1C(=O)N[C@H](C(=O)N[C@H](C(N)=O)C1CCCCC1)C1CCCCC1)C(C)(C)C [17a/b] ({Isonicotinoyl(3-COOH)}-[X5][Tle][Pro(4-oxo)][Chg][Chg]-NH2)		> 75%	7.2	295 nM	41 nM
< 15 min	0.52	117 nM	226 nM		CCCC[C@H](NC(=O)[C@H](CC/C=C/C(=O)OC)NC(=O)[C@@H]1CC(=O)CN1)C(=O)N[C@H](C(=O)N[C@@H](CC(C)C)C(=O)N1CCC[C@H]1C(=O)N[C@@H](Cc1c[nH]c2ccccc12)C(=O)O)C(C)CC (stereo partly shown) [Ref. 15, reference compound] (H-[Pro(4-oxo)][X1][Nle][Ile(3ξ)]LPW-OH)					
					COC(=O)/C=C/CC[C@H](NC(=O)c1ccncc1C(=O)O)C(=O)N[C@H](C(=O)N1CC(=O)C[C@H]1C(=O)N[C@H](C(=O)N[C@H](C(=O)OC)C1CCCCC1)C1CCCCC1)C(C)(C)C [35a/b] ({Isonicotinoyl(3-COOH)}-[X1][Tle][Pro(4-oxo)][Chg][Chg]-OMe)		> 75%	2.3	198 nM	86 nM
< 15 min	0.34	341 nM	995 nM		COC(=O)/C=C/CC[C@H](NC(=O)[C@H](CC(N)=O)NC(C)=O)C(=O)N[C@@H](CCC(=O)O)C(=O)N[C@@H](CCC(N)=O)C(=O)N[C@H](C(=O)N[C@@H](CO)C(=O)N1CCC[C@H]1C(=O)N[C@@H](CC(C)C)C(=O)N[C@H](C(=O)N[C@@H](CC(C)C)C(=O)N[C@@H](CC(C)C)C(=O)O)C(C)O)C(C)C (stereo partly shown) [Ref. 18, reference compound] (Ac-N[X1]EQVSPL[Thr(3ξ)]LL-OH)					
< 15 min	1.82	102 nM	56 nM		CCCC[C@H](NC(=O)[C@H](CC/C=C/C(=O)OC)NC(=O)[C@@H]1CC(=O)CN1)C(=O)N[C@H](C(=O)N[C@@H](CC(C)C)C(=O)N1CCC[C@H]1C(=O)N[C@@H](Cc1c[nH]c2ccccc12)C(=O)N1CCC[C@H]1C(=O)O)C(C)CC (stereo partly shown) [Ref. 23, reference compound] (H-[Pro(4-oxo)][X1][Nle][Ile(3ξ)]LPWP-OH)					
< 15 min	0.55	169 nM	306 nM		C=CCOC(=O)NCCCC[C@H](NC(=O)[C@H](CC(C)C)NC(=O)[C@H](CC(C)C)NC(=O)[C@@H](NC(=O)[C@H](CC(C)C)NC(=O)[C@@H]1CCCN1C(=O)[C@H](CO)NC(=O)C(NC(=O)[C@H](CCC(N)=O)NC(=O)[C@H](CCC(=O)O)NC(=O)[C@H](CC/C=C/C(=O)OC)NC(=O)[C@H](CC(N)=O)NC(C)=O)C(C)C)C(C)O)C(=O)O (stereo partly shown) [Ref. 24, reference compound] (Ac-N[X1]EQ[ξV]SPL[Thr(3ξ)]LLK(Alloc)-OH)					
	10.47	848 nM	81 nM	> 75%	CCOC(=O)/C=C/CC[C@H](NC(=O)c1cc(C(=O)O)cc([N+](=O)[O-])c1)C(=O)N[C@H](C(=O)N1CC(=O)C[C@H]1C(=O)N[C@H](C(=O)NCCC(C)C)C1CCCCC1)C(C)(C)C [Compound 40] ({Benzoyl(3-COOH,5-NO2)}-[Nle(5E-ene,6-CO2Et)][Tle][Pro(4-oxo)][Chg]-NHIsopentyl)					
					CCOC(=O)/C=C/CC[C@H](NC(=O)c1ccncc1C(=O)O)C(=O)N[C@H](C(=O)N1CC(=O)C[C@H]1C(=O)N[C@H](C(=O)N[C@H](C(N)=O)C1CCCCC1)C1CCCCC1)C(C)(C)C [8a/b] ({Isonicotinoyl(3-COOH)}-[Nle(5E-ene,6-CO2Et)][Tle][Pro(4-oxo)][Chg][Chg]-NH2)		> 75%	19.9	417 nM	21 nM
				> 75%	COC(=O)/C=C/CC[C@H](NC(=O)c1nccnc1C(=O)O)C(=O)N[C@H](C(=O)N1CC(=O)C[C@H]1C(=O)N[C@H](C(=O)N[C@H](C(N)=O)C1CCCCC1)C1CCCCC1)C(C)(C)C [Compound 3] (X7-[X1][Tle][Pro(4-oxo)][Chg][Chg]-NH2)			0.8	16 nM	20 nM
				> 75%	COC(=O)/C=C/CC[C@H](NC(=O)c1cc(C(=O)O)cc([N+](=O)[O-])c1)C(=O)N[C@H](C(=O)N1CC(=O)C[C@H]1C(=O)N[C@H](C(=O)N[C@H](C(N)=O)C1CCCCC1)C1CCCCC1)C(C)(C)C [Compound 4] ({Benzoyl(3-COOH,5-NO2)}-[X1][Tle][Pro(4-oxo)][Chg][Chg]-NH2)			1.1	14 nM	13 nM

SMILES	half-life (in vitro)	Selectivity (TG2; Table 4)	IC50 (TG2; Table 4, read-out: TG2 IC50)	IC50 (FXIII; Table 4, read-out: FXIII IC50)	recovery at 2 h (in vitro)	increase in clot lysis at 60 minutes compared to control (LI60c) (whole human blood)	recovery in plasma determined by HPLC (in vitro)	Selectivity (TG2; isopeptidase assay, Table 3)	IC50 (TG2; [1])	IC50 (FXIII; [2])
C=C1C[C@@H](C(=O)N[C@@H](CC(C)C)C(=O)N2CCC[C@H]2C(=O)O)N(C(=O)[C@@H](NC(=O)[C@H](CC/C=C/C(=O)OC)NC(=O)c2cc(C(=O)O)cc([N+](=O)[O-])c2)C(C)(C)C)C1 [Compound 43] ({Benzoyl(3-COOH,5-NO2)}-[X1][Tle][Pro(4-methylene)]LP-OH)		5.42	856 nM	158 nM	> 75%	14%				
